Data published in ChEMBL document CHEMBL6109133, “Towards P2X4 Positron Emission Tomography Tracing” (J Med Chem, 2025).

Tests used:
[1] = Plasma protein binding in mouse; assay type: ADME, cell-free; settings: read-out: PPB
P2X purinoceptor 4 = biological target: T1, P2X purinoceptor 4 (Homo sapiens, UniProt Q99571); experiment: Antagonist activity at human P2X4 receptor
T1 sequence (Q99571 whole entry): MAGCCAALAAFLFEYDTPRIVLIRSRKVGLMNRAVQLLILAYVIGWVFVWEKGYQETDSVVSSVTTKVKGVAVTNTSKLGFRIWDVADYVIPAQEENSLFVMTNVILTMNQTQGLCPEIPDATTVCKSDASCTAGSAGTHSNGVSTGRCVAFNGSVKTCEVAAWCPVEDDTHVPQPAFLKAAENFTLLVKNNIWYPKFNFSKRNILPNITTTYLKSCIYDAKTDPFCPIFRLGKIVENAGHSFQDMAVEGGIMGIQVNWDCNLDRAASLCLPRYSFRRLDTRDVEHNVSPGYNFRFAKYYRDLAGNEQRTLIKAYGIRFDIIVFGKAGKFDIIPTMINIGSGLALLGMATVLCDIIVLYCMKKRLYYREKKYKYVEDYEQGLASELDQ

Compound	fraction unbound [1]	IC50 (P2X purinoceptor 4)
Cc1cc(F)ccc1S(=O)(=O)Nc1ccc(N2C(=O)CC(=O)Nc3c2ccc2ccccc32)cc1	< 0.02	64 nM
Cc1cc(F)ccc1CS(=O)(=O)Nc1ccc(N2C(=O)CC(=O)Nc3c2ccc2ccccc32)cc1	< 0.02	8 nM
